The molecules below were run against CC chemokine receptor 2 (CCR2) (Homo sapiens, UniProt P41597).
CC chemokine receptor 2 (CCR2), sequence (P41597 whole entry): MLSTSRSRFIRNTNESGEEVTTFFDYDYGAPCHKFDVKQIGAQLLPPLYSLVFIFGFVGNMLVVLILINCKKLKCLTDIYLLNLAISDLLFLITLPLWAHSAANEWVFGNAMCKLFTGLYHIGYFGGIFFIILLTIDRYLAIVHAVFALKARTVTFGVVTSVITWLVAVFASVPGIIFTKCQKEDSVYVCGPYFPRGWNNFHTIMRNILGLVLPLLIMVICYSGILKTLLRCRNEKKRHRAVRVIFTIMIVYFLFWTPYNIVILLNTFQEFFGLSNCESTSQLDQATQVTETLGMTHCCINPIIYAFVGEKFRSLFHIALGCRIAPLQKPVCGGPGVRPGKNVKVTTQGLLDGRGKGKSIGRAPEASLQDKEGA

Q: Which Ki does the source give for `COc1ccc(S(=O)(=O)Nc2cncc(N3CCOCC3)n2)cc1` [compound 13, LUF8070] here?
A: 3.26 µM

Q: Which Ki does the source give for `O=S(=O)(Nc1cncc(N2CCOCC2)n1)c1ccc(Cl)c(Cl)c1` [compound 17, LUF8075] here?
A: 1.32 µM

Q: How did the Ki turn out when `O=S(=O)(Nc1cncc(N2CCCCC2)n1)c1ccc(Cl)c(C(F)(F)F)c1` [compound 20, LUF8100] was run?
A: 5.95 µM

— publication PMC12648652, “Combining AlphaFold with Focused Virtual Library Design in the Development of Novel CCR2 and CCR5 Antagonists” (Journal of Chemical Information and Modeling, 2025)
